Values of other authors, collected in patent US8440655B2, “Combination therapy for the treatment of diabetes” (Theracos, Inc., priority 2010, dated 2013).

Experiments:
[1] = tested on: cortical receptors; conditions: (+) form compared to (−) isomer
[2] = tested on: cardiac receptors; conditions: (+) form compared to (−) form
[3] = tested on: muscarinic receptor; conditions: result in words
[4] = at 90 degrees

Compound	factor by which the (+) form is more effective than the (−) isomer [1]	factor by which the (+) form is more potent than the (−) form [2]	antimuscarinic activity [3]	half time of interconversion of the two forms [4]
Cc1scc2c1N(C(=O)CN1CCN(C)CC1)c1ccccc1NC2=O [(+) form of telenzepine]	400	50	potent antimuscarinic activity	–
Cc1scc2c1N(C(=O)CN1CCN(C)CC1)c1ccccc1NC2=O [Telenzepine, 4,9-Dihydro-3-methyl-4-[(4-methyl-1-piperazinyl)acetyl]-10H-thieno[3,4-b][1,5]benzodiazepin-10-one]	–	–	–	approximately 200 hours
Cc1scc2c1N(C(=O)CN1CCN(C)CC1)c1ccccc1NC2=O [(−) form]	–	–	considerably less active	–
